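Compound exposure: 48 hours, 5 concentrations, 96-well plates. GI50 = concentration required for 50% inhibition of growth. At the TGI there is no net growth.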
Experiments:
Assay in all cases: NCI-60 cell line screen, 48 h
[1] = system: MDA-MB-435
[2] = system: A498 renal
[3] = system: K-562 leukemia
[4] = system: PC-3 prostate
[5] = system: UACC-62 melanoma
[6] = system: TK-10 renal
[7] = system: 786-0 renal
[8] = system: HS 578T breast
[9] = system: SK-MEL-5 melanoma
[10] = system: NCI-H522 lung
[11] = system: T-47D breast
[12] = system: SNB-75 CNS
[13] = system: NCI-H460 lung
[14] = system: OVCAR-8 ovarian
[15] = system: ACHN renal
[16] = system: HL-60(TB) leukemia
[17] = system: SF-295 CNS
[18] = system: OVCAR-5 ovarian
[19] = system: MCF7 breast
[20] = system: NCI/ADR-RES ovarian
[21] = system: MOLT-4 leukemia
[22] = system: RPMI-8226 leukemia
[23] = system: SK-OV-3 ovarian
[24] = system: CAKI-1 renal
[25] = system: UACC-257 melanoma
[26] = system: NCI-H226 lung
[27] = system: HOP-92 NSCLC
[28] = system: SF-268 CNS
[29] = system: HOP-62 NSCLC

## O=C1/C(=C/c2ccc([N+](=O)[O-])o2)Oc2ccccc21
[1]
  GI50: 1790 nM
  TGI: 4010 nM
[2]
  GI50: 1930 nM
  TGI: 4400 nM
[3]
  GI50: 371 nM
  TGI: 1970 nM
[4]
  GI50: 2250 nM
  TGI: 7120 nM
[5]
  GI50: 1470 nM
  TGI: 2930 nM
[6]
  GI50: 1590 nM
  TGI: 3020 nM
[7]
  GI50: 2060 nM
  TGI: 4120 nM
[8]
  GI50: 2880 nM
  TGI: 21400 nM
[9]
  GI50: 1690 nM
  TGI: 3290 nM
[10]
  GI50: 384 nM
  TGI: 1450 nM
[11]
  GI50: 1240 nM
  TGI: 4340 nM
[12]
  GI50: 1800 nM
  TGI: 5770 nM
[13]
  GI50: 1910 nM
  TGI: 4090 nM
[14]
  GI50: 1350 nM
  TGI: 3820 nM
[15]
  GI50: 895 nM
  TGI: 2170 nM
[16]
  GI50: 1330 nM
  TGI: 3890 nM
[17]
  GI50: 3430 nM
  TGI: 13800 nM
[18]
  GI50: 1850 nM
  TGI: 3500 nM
[19]
  GI50: 827 nM
  TGI: 3110 nM
[20]
  GI50: 3080 nM
  TGI: 11700 nM
[21]
  GI50: 1350 nM
  TGI: 3700 nM
[22]
  GI50: 1020 nM
  TGI: 3580 nM
[23]
  GI50: 6400 nM
  TGI: 18200 nM
[24]
  GI50: 758 nM
  TGI: 2170 nM
[25]
  GI50: 1680 nM
  TGI: 3500 nM
[26]
  GI50: 1940 nM
  TGI: 4980 nM
[27]
  GI50: 912 nM
  TGI: 2620 nM
[28]
  GI50: 2190 nM
  TGI: 5860 nM
[29]
  GI50: 2220 nM

From PubChem BioAssay (NCI)
